Assays:
[1] = tested on: STAT5 Y694 phosphorylation; assay: HTRF experiment: STAT5 Y694 phosphorylation in Hela cells stimulated with human interferon beta; format: cell-based; details: 2 hours pretreatment, 10 nM human interferon beta 30 minutes
Protocol: Example of Effect 3: HTRF Experiment
Human Interferon 3 (IFN-0) (GenScript, Cat #P01574), STAT5 Y694 phosphorylation detection kit (STAT5 phospho-Y694 kit) (Cisbio; Cat #64AT5PEG).
Hela cells (ATCC American Standard Culture Center, CCL-2) were cultured in a 96-well plate at a density of 3×10^4 cells/well with DMEM medium containing 5% fetal bovine serum and maintained at 37° C. in a humidified incubator with 5% carbon dioxide overnight. On the second day, the original DMEM medium in the 96-well plate was sucked dry, and an equal volume of medium containing different concentrations of compounds (the mother liquor of the compound prepared by dimethyl sulfoxide was diluted in the medium at the required concentration) was added for pretreatment for 2 hours, and then it was placed in an incubator at 37° C. Then human interferon beta with a final concentration of 10 nM was added to stimulate, and it was gently shaken to mix well and then placed in an incubator at 37° C. for 30 minutes.
The medium was removed, an appropriate volume of PBS was added to wash, and then it was sucked dry. Then 40 microliters of 1× Lysis Buffer was added to each well and it was stood for 30 minutes at room temperature (1 ml 1× lysate preparation: 740 μl ddH2O was added to 250 μl 4× lysate and 10 μl Blocking reagent and it was mixed thoroughly). After 30 minutes, the cells were repeatedly blown until the lysis solution was not viscous (avoiding blowing out bubbles) to achieve sufficient lysis.
After overnight incubation, the signals of 665 nm and 620 nm were detected in a multifunctional microplate reader. The calculation formula for the detection of STAT5 Y694 phosphorylation is: Ratio=[(signal 665 nm)/(signal 620 nm)]×10^4. Treatment with dimethyl sulfoxide alone was the baseline control (Ratiobase), and the human interferon β stimulation without addition of the compound was the STAT5 Y694 full phosphorylation activation control (Ratiostimulation), the inhibition rate of STAT5 Y694 phosphorylation of different samples was normalized: Inhibition rate=[1−(RatioExperiment−Ratiobase)/(Ratiostimulation−Ratiobase)]*100.

[2] = tested on: STAT5 Y694 phosphorylation; assay: Protein electrophoresis and blotting of STAT5 Y694 phosphorylation in Jurkat cells stimulated with human interferon beta; format: cell-based; details: observed pSTAT5 bands at 10 μM and 100 μM
Outline: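 Serum-free Jurkat cells pretreated with compound 1 h, then stimulated with 20 ng/ml human interferon beta for 30 min at 37° C. pSTAT5 measured by western blot with chemiluminescence, normalized to GAPDH and expressed as percent of DMSO control.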

SMILES	Example of Effect 3: Inhibiting Ratio@10 μM (HTRF Experiment) [1]	Example of Effect 1: Inhibiting Ability (Protein Electrophoresis and Blotting) [2]
O=C(Cc1ccc(C(F)(F)F)cc1)N1CCC2(CC1)C(=O)NCN2c1ccccc1 [GEN1-049, 1-phenyl-8-(2-(4-(trifluoromethyl)phenyl)acetyl)-1,3,8triazaspiro[4.5]decane-4-one]	18.33%	−
O=C1CN(C2CCN(C(=O)Cc3ccc(C(F)(F)F)cc3)CC2)c2ccccc2N1 [GEN1-052, 4-(1-(2-(4-(trifluoromethyl)phenyl)acetyl)piperidin-4-yl)-3,4-dihydroquinoxaline-2(1H)-one]	8.83%	+
CC(=O)Nc1ccccc1NC1CCN(C(=O)Cc2ccc(C(F)(F)F)cc2)CC1 [GEN1-057, N-(2-((1-(2-(4-(trifluoromethyl)phenyl)acetyl)piperidin-4-yl)amino)phenyl)acetamide]	66.22%	++
O=C(Cc1ccc(C(F)(F)F)cc1)N1CCC(N2CC(=S)Nc3ccccc32)CC1 [GEN1-133]	31.27%	
O=C(Cc1ccc2c(c1)CCCN2)N1CCC(n2c(=O)[nH]c3cccc(C(F)(F)F)c32)CC1 [GEN1-276, 1-(1-(2-(1,2,3,4-tetrahydroquinolin-6-yl)acetyl)piperidin-4-yl)-7-(trifluoromethyl)-1,3-dihydro-2H-benzo[d]imidazol-2-one]	55.48%	
CCOc1cccc(CC(=O)N2CCC(n3c(=O)[nH]c4ccccc43)CC2)c1 [GEN1-287]	8.72%	
CS(=O)(=O)Nc1ccc(CC(=O)N2CCC(n3c(=O)[nH]c4ccccc43)CC2)cc1 [GEN1-110]	−10.49%	
O=C(Cc1ccc(C(F)(F)F)cc1)N1CCC(N2C(=O)NCc3ccccc32)CC1 [GEN1-162, 1-(1-(2-(4-(trifluoromethyl)phenyl)acetyl)piperidin-4-yl)-3,4-dihydroquinazolin-2(1H)-one]	22.04%	+
O=C(Cc1ccc(C(F)(F)F)cc1)N1CCC(n2c(=O)[nH]c3ccc(-c4ccccc4)c(C(F)(F)F)c32)CC1 [GEN1-277, 6-phenyl-7-(trifluoromethyl)-1-(1-(2-(4-(trifluoromethyl)phenyl)acetyl)piperidin-4-yl)-1H-benzo[d]imidazol-2(3H)-one]	6.52%	
COc1ccc2[nH]c(=O)n(C3CCN(C(=O)Cc4ccc(C(F)(F)F)cc4)CC3)c2c1 [GEN1-011, 6-methoxy-1-(1-(2-(4-(trifluoromethyl)phenyl)acetyl)piperidin-4-yl)-1H-benzo[d]imidazole-2 (3H)-one]	20.49%	+
O=C(/N=c1\[nH]c2cccc(C(F)(F)F)c2n1C1CCN(C(=O)Cc2ccc3ncccc3c2)CC1)c1ccccc1 [GEN1-172]	13.83%	−
O=C(Cc1ccc(C(F)(F)F)cc1)N1CCC(n2c(=S)[nH]c3ccccc32)CC1 [GEN1-050, 1-(4-(2-thioxo-2,3-dihydro-1H-benzo[d]imidazol-1-yl)piperidin-1-yl)-2-(4-(trifluoromethyl)phenyl)ethanone]	15.28%	+
CC(=O)/N=c1\[nH]c2cccc(C(F)(F)F)c2n1C1CCN(C(=O)Cc2ccc3ncccc3c2)CC1 [GEN1-171]	9.85%	−
O=C1Nc2ccccc2C2(CCN(C(=O)Cc3ccc(C(F)(F)F)cc3)CC2)N1 [GEN1-179, 1-(2-(4-(trifluoromethyl)phenyl)acetyl)-1′H-spiro[piperidin-4,4′-quinazoline]-2′(3′H)-one]	10.11%	
COc1ccccc1CC(=O)N1CCC(n2c(=O)[nH]c3ccccc32)CC1 [GEN1-271]	9.33%	
Cc1cccc2[nH]c(=O)n(C3CCN(C(=O)Cc4ccc5ncccc5c4)CC3)c12 [GEN1-292, 7-methyl-1-(1-(2-(quinolin-6-yl)acetyl)piperidin-4-yl)-1,3-dihydro-2H-benzo[d]imidazol-2-one]	59.63%	
O=C(C[C@H]1CC[C@H](C(F)(F)F)CC1)N1CCC(n2c(=O)[nH]c3cccc(C(F)(F)F)c32)CC1 [GEN1-268, 7-(trifluoromethyl)-1-(1-(2-((1R,4R)-4-(trifluoromethyl)cyclohexyl)acetyl)piperidin-4-yl)-1H-benzo[d]imidazol-2(3H)-one]	58.21%	
O=C(Cc1ccc(Cl)c(OC(F)(F)F)c1)N1CCC(n2c(=O)[nH]c3cccc(C(F)(F)F)c32)CC1 [GEN1-280, 1-(1-(2-(4-chloro-3-(trifluoromethoxy)phenyl)acetyl)piperidin-4-yl)-7-(trifluoromethyl)-1,3-dihydro-2H-benzo[d]imidazol-2-one]	20.53%	
COc1cc(CC(=O)N2CCC(n3c(=O)[nH]c4cccc(C(F)(F)F)c43)CC2)ccc1Cl [GEN1-278, 1-(1-(2-(4-chloro-3-methoxyphenyl)acetyl)piperidin-4-yl)-7-(trifluoromethyl)-1,3-dihydro-2H-benzo[d]imidazol-2-one]	73.74%	
Cc1cccc2[nH]c(=O)n(C3CCN(C(=O)Cc4ccc(C(F)(F)F)cc4)CC3)c12 [GEN1-282]	49.93%	
O=C(Cc1ccc2ncccc2c1)N1CCC(n2c(=O)[nH]c3cccc(Cl)c32)CC1 [GEN1-291]	70.98%	
O=C(Cc1ccc(C(F)(F)F)cc1)N1CCC(n2c(=O)[nH]c3cccc(Br)c32)CC1 [GEN1-290]	57.51%	
O=C(Cc1ccc(C(F)(F)F)cc1)N1CCC(n2c(=O)[nH]c3cccc(F)c32)CC1 [GEN1-289]	6.86%	
COc1cccc(CC(=O)N2CCC(n3c(=O)[nH]c4ccccc43)CC2)c1 [GEN1-270]	21.10%	
O=C(Cc1ccc(C(F)(F)F)cc1)NCCn1c(=O)[nH]c2ccccc21 [GEN1-062, N-(2-(2-oxo-2,3-dihydro-1H-benzo[d]imidazol-1-yl)ethyl)-2-(4-(trifluoromethyl)phenyl)acetamide]	5.12%	
O=C(Cc1ccc(C(F)(F)F)cc1)N1CCC(Nc2ccccc2O)CC1 [GEN1-056, 1-(4-((2-hydroxyphenyl)amino)piperidin-1-yl)-2-(4-(trifluoromethyl)phenyl)ethenone]	13.93%	
O=C1CN(C2CCN(C(=O)Cc3ccc(C(F)(F)F)cc3)CC2)c2ccc(C(F)(F)F)cc2N1 [GEN1-135, 7-(trifluoromethyl)-4-(1-(2-(4-(trifluoromethyl)phenyl)acetyl)piperidin-4-yl)-3,4-dihydroquinoxaline-2(1H)-one]	22.91%	
O=C(Cc1ccc(C(F)(F)F)cc1)N1CCC(c2c(Br)[nH]c3ccccc23)CC1 [GEN1-139, 1-(4-(2-bromo-1H-indol-3-yl)piperidin-1-yl)-2-(4-(trifluoromethyl)phenyl)ethenone]	18.43%	

Reference: US20230099441A1, “HETEROCYCLIC COMPOUND, APPLICATION THEREOF, AND COMPOSITION CONTAINING SAME” (GenEros Biopharma Ltd., priority 2019, published 2023)
